Structures are written as SMILES. Like-named read-outs stand apart in the source and are kept apart here.

This note sets out measurements from patent publication US20230117034A1, “PYRAZOLOTRIAZINES” (Bayer Aktiengesellschaft, priority 2019, published 2023).

Assay [1] concerns the target CDK12/CycK (Homo sapiens, UniProt Q9NYV4). The assay is described as follows: CDK12/CycK high ATP kinase assay (TR-FRET, 2 mM ATP). Type of assay: biochemical. Particulars: 2 mM ATP (high ATP); median; read-out: CDK12/CyclinK, 2 mM ATP (high ATP), IC50-[mol/l] (median). Summed up: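 Read-out is TR-FRET (Eu-anti-rabbit IgG, anti-phospho-c-Myc Ser62 antibody, streptavidin-XL665) after EDTA stop. Reaction ran 60 min at 22 °C using 1 µM biotin-peptide and high ATP (2 mM) with roughly 0.75 nM recombinant CDK12/CycK, after 15 min compound pre-binding; normalised emission ratios yield IC50.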
For orientation: TR-FRET usually uses a lanthanide donor and a delayed reading to cut background.

Assay [2] deals with BRCA1 mRNA expression in MDA-MB-231 cells. Put plainly: qRT-PCR assay: BRCA1 mRNA expression in MDA-MB-231. The following applies: Homo sapiens, median, read-out: RTqPCR-MDA-MB-231, IC50, BRCA1 (median). In kind it is cell-based, human. The gist of the method:
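Seed 200,000 cells/well; 24 h later add compound, continuous exposure 24 h; extract RNA, 600 ng to cDNA; RT-qPCR, normalised to GAPDH.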
(Quantitative PCR measures a nucleic acid by following its amplification.)

[3] abbreviates: MDA-MB-231, Inhibition of BRCA1 mRNA expression in MDA-MB-231 cells.

Chain of CDK12/CycK (Q9NYV4 with tags, fused parts or gaps): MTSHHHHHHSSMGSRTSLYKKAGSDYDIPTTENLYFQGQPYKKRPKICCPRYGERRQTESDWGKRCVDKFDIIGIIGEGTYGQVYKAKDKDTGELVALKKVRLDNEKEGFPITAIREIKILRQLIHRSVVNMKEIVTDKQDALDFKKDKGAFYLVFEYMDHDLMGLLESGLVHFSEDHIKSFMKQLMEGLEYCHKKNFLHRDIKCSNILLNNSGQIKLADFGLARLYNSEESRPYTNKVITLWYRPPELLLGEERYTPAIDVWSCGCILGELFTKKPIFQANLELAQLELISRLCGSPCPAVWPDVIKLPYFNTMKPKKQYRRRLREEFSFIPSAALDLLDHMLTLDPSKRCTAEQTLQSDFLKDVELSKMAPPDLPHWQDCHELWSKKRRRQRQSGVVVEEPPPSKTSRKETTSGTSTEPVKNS
Chain of CDK12/CycK (O75909 1-300 partner limits assumed): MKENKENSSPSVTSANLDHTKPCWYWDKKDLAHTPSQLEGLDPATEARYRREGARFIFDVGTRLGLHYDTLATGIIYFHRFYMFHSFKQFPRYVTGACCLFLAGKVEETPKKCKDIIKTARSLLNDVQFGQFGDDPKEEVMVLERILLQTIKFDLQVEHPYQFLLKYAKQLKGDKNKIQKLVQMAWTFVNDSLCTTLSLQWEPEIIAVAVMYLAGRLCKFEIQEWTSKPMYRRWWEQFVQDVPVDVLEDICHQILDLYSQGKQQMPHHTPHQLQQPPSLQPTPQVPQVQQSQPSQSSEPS

On to `Fc1cc2nc(CNc3nc(N4CC5CCC(C4)N5)nc4c(C5CC5)cnn34)[nH]c2cc1F` [Example 325, 8-cyclopropyl-2-(3,8-diazabicyclo[3.2.1]octan-3-yl)-N-[(5,6-difluoro-1H-benzimidazol-2-yl)methyl]pyrazolo[1,5-a][1,5]triazin-4-amine], for which the values for the IC50 in assay [1] and in assay [2] (setting [3]) were 3550 nM and 3.91 nM, respectively.

Take `CN(c1nc(NCc2nc3ccccc3[nH]2)n2ncc(Br)c2n1)[C@H]1C[C@@H](O)C1` [Example 364, cis-3-[(4-{[(1H-benzimidazol-2-yl)methyl]amino}-8-bromopyrazolo[1,5-a][1,3,5]triazin-2-yl)(methyl)amino]cyclobutan-1-ol]: the IC50 in assay [1] is 6670 nM; in assay [2] (setting [3]) it was 9.75 nM.

For the compound `CN1CCN(c2nc(NCc3nc4c(F)cccc4[nH]3)n3ncc(Cl)c3n2)CC1.O=CO` [Example 362, formic acid 8-chloro-N-[(4-fluoro-1H-benzimidazol-2-yl)methyl]-2-(4-methylpiperazin-1-yl)pyrazolo[1,5-a][1,3,5]triazin-4-amine], the results for the IC50 in assay [1] and in assay [2] (setting [3]) were 13100 nM and 26.4 nM, respectively.

For the compound `Fc1cc2nc(CNc3nc(N4CCOCC4)nc4c(C(F)(F)F)cnn34)[nH]c2cc1F` [Example 333, N-[(5,6-difluoro-1H-benzimidazol-2-yl)methyl]-2-(morpholin-4-yl)-8-(trifluoromethyl)pyrazolo[1,5-a][1,3,5]triazin-4-amine], the values for the IC50 in assay [1] and in assay [2] (setting [3]) were 142 nM and 1.8 nM, respectively.

Consider `CN1CCN(c2nc(NCc3nc4c(F)c(Cl)ccc4[nH]3)n3ncc(C4CC4)c3n2)CC1` [Example 371, N-[(5-chloro-4-fluoro-1H-benzimidazol-2-yl)methyl]-8-cyclopropyl-2-(4-methylpiperazin-1-yl)pyrazolo[1,5-a][1,3,5]triazin-4-amine], for which the IC50 turned out to be 5250 nM in assay [1] and 7.36 nM in assay [2] (setting [3]).

As to `FC(F)(F)Oc1ccc2[nH]c(CNc3nc(N4C[C@H]5CC[C@@H](C4)N5)nc4c(Br)cnn34)nc2c1` [Example 382, 8-bromo-2-[(1R,5S)-3,8-diazabicyclo[3.2.1]octan-3-yl]-N-{[5-(trifluoromethoxy)-1H-benzimidazol-2-yl]methyl}pyrazolo[1,5-a][1,3,5]triazin-4-amine], the IC50 in assay [1] was 823 nM; in assay [2] (setting [3]), 28.8 nM.

Turning to `Cc1cc2nc(CNc3nc(N4CC5CCC(C4)N5)nc4c(Br)cnn34)[nH]c2cc1C` [Example 353, 8-bromo-2-(3,8-diazabicyclo[3.2.1]octan-3-yl)-N-[(5,6-dimethyl-1H-benzimidazol-2-yl)methyl]pyrazolo[1,5-a][1,3,5]triazin-4-amine], the values for the IC50 in assay [1] and in assay [2] (setting [3]) were 2520 nM and 2.39 nM, respectively.

With `CN(CC(C)(C)O)c1nc(NCc2nc3c(F)c(Cl)ccc3[nH]2)n2ncc(Br)c2n1` [Example 374, 1-[(8-bromo-4-{[(5-chloro-4-fluoro-1H-benzimidazol-2-yl)methyl]amino}pyrazolo[1,5-a][1,3,5]triazin-2-yl)(methyl)amino]-2-methylpropan-2-ol], the IC50 in assay [1] amounted to 155 nM; in assay [2] (setting [3]) it was 2.6 nM.

For `Brc1cnn2c(NCc3nc4ccccc4[nH]3)nc(N3CCN4CCC3CC4)nc12` [Example 349, N-[(1H-benzimidazol-2-yl)methyl]-8-bromo-2-(1,4-diazabicyclo[3.2.2]nonan-4-yl)pyrazolo[1,5-a][1,3,5]triazin-4-amine], the IC50 in assay [1] worked out at 8670 nM; in assay [2] (setting [3]), 15.6 nM.

For `C[C@H]1CN(C)CCN1c1nc(NCc2nc3c(F)cccc3[nH]2)n2ncc(C(F)(F)F)c2n1` [Example 388, 2-[(2S)-2,4-dimethylpiperazin-1-yl]-N-[(4-fluoro-1H-benzimidazol-2-yl)methyl]-8-(trifluoromethyl)pyrazolo[1,5-a][1,3,5]triazin-4-amine], the figures for the IC50 in assay [1] and in assay [2] (setting [3]) were 6840 nM and 40 nM, respectively.

For `Fc1c(Cl)ccc2[nH]c(CNc3nc(N4CC5CCC(C4)N5)nc4c(Br)cnn34)nc12` [Example 380, 8-bromo-N-[(5-chloro-4-fluoro-1H-benzimidazol-2-yl)methyl]-2-(3,8-diazabicyclo[3.2.1]octan-3-yl)pyrazolo[1,5-a][1,3,5]triazin-4-amine], the IC50 in assay [1] was determined as 1020 nM; in assay [2] (setting [3]) it was 1 nM.

Consider `Cc1cc2nc(CNc3nc(N(C)CC(C)(C)O)nc4c(C5CC5)cnn34)[nH]c2cc1C` [Example 321, 1-[(8-cyclopropyl-4-{[(5,6-dimethyl-1H-benzimidazol-2-yl)methyl]amino}pyrazolo[1,5-a][1,3,5]triazin-2-yl)(methyl)amino]-2-methylpropan-2-ol], for which the IC50 is 416 nM in assay [1] and 1.3 nM in assay [2] (setting [3]).

In the case of `Cc1ccnc2[nH]c(CNc3nc(N4CCOCC4)nc4c(C(C)C)cnn34)nc12` [Example 28, N-[(7-methyl-3H-imidazo[4,5-b]pyridin-2-yl)methyl]-2-(morpholin-4-yl)-8-(propan-2-yl)pyrazolo[1,5-a][1,3,5]triazin-4-amine], the IC50 in assay [1] is 3320 nM; in assay [2] (setting [3]), 13.3 nM.

As for `Fc1c(Cl)ccc2[nH]c(CNc3nc(N4CCOCC4)nc4c(Br)cnn34)nc12` [Example 372, 8-bromo-N-[(5-chloro-4-fluoro-1H-benzimidazol-2-yl)methyl]-2-(morpholin-4-yl)pyrazolo[1,5-a][1,3,5]triazin-4-amine], the IC50 amounted to 269 nM in assay [1] and 2.16 nM in assay [2] (setting [3]).

As to `Fc1cc2nc(CNc3nc(N4CC5CCC(C4)N5)nc4c(Br)cnn34)[nH]c2cc1Cl` [Example 348, 8-bromo-N-[(6-chloro-5-fluoro-1H-benzimidazol-2-yl)methyl]-2-(3,8-diazabicyclo[3.2.1]octan-3-yl)pyrazolo[1,5-a][1,3,5]triazin-4-amine], the IC50 in assay [1] worked out at 2890 nM; in assay [2] (Inhibition of BRCA1 mRNA expression in MDA-MB-231 cells), 1.97 nM.

Consider `CN1CCN(c2nc(NCc3nc4cc(F)c(F)cc4[nH]3)n3ncc(Br)c3n2)CC1` [Example 346, 8-bromo-N-[(5,6-difluoro-1H-benzimidazol-2-yl)methyl]-2-(4-methylpiperazin-1-yl)pyrazolo[1,5-a][1,3,5]triazin-4-amine], for which the IC50 in assay [1] is 12200 nM; in assay [2] (setting [3]) it was 3.02 nM.

In the case of `FC(F)(F)c1ccc2[nH]c(CNc3nc(N4CC5CCC(C4)N5)nc4c(C5CC5)cnn34)nc2c1` [Example 327, 8-cyclopropyl-2-(3,8-diazabicyclo[3.2.1]octan-3-yl)-N-{[5-(trifluoromethyl)-1H-benzimidazol-2-yl]methyl}pyrazolo[1,5-a][1,3,5]triazin-4-amine], the IC50 was 2350 nM in assay [1] and 8.3 nM in assay [2] (setting [3]).

Consider `CN1CCN(c2nc(NCc3nc4cc(C(F)(F)F)ccc4[nH]3)n3ncc(Br)c3n2)CC1` [Example 344, 8-bromo-2-(4-methylpiperazin-1-yl)-N-{[5-(trifluoromethyl)-1H-benzimidazol-2-yl]methyl}pyrazolo[1,5-a][1,3,5]triazin-4-amine], for which the IC50 stood at 8370 nM in assay [1] and 2.34 nM in assay [2] (setting [3]).

As to `Fc1cc2nc(CNc3nc(N4C[C@H]5CC[C@@H](C4)N5)nc4c(C5CC5)cnn34)[nH]c2cc1Cl` [Example 328, N-[(6-chloro-5-fluoro-1H-benzimidazol-2-yl)methyl]-8-cyclopropyl-2-[(1R,5S)-3,8-diazabicyclo[3.2.1]octan-3-yl]pyrazolo[1,5-a][1,3,5]triazin-4-amine], the IC50 in assay [1] was determined as 1660 nM; in assay [2] (setting [3]), 2.78 nM.

For `CN(CC(C)(C)O)c1nc(NCc2nc3cc(C(F)(F)F)ccc3[nH]2)n2ncc(C3CC3)c2n1` [Example 323, 1-{[8-cyclopropyl-4-({[5-(trifluoromethyl)-1H-benzimidazol-2-yl]methyl}amino)pyrazolo[1,5-a][1,3,5]triazin-2-yl](methyl)amino}-2-methylpropan-2-ol], the IC50 in assay [1] worked out at 2850 nM; in assay [2] (setting [3]) it was 16.9 nM.

Take `CN1CCN(c2nc(NCc3nc4c(F)c(Cl)ccc4[nH]3)n3ncc(Br)c3n2)CC1` [Example 373, 8-bromo-N-[(5-chloro-4-fluoro-1H-benzimidazol-2-yl)methyl]-2-(4-methylpiperazin-1-yl)pyrazolo[1,5-a][1,3,5]triazin-4-amine]: the IC50 in assay [1] turned out to be 3060 nM; in assay [2] (setting [3]), 1.27 nM.

With `Fc1c(Cl)ccc2[nH]c(CNc3nc(N4CC5CCC(C4)N5)nc4c(C5CC5)cnn34)nc12` [Example 379, N-[(5-chloro-4-fluoro-1H-benzimidazol-2-yl)methyl]-8-cyclopropyl-2-(3,8-diazabicyclo[3.2.1]octan-3-yl)pyrazolo[1,5-a][1,3,5]triazin-4-amine], the IC50 in assay [1] amounted to 528 nM; in assay [2] (setting [3]), 2.36 nM.

On to `Fc1c(Cl)ccc2[nH]c(CNc3nc(N4CCOCC4)nc4c(C5CC5)cnn34)nc12` [Example 370, N-[(5-chloro-4-fluoro-1H-benzimidazol-2-yl)methyl]-8-cyclopropyl-2-(morpholin-4-yl)pyrazolo[1,5-a][1,3,5]triazin-4-amine], for which the IC50 turned out to be 169 nM in assay [1] and 5.63 nM in assay [2] (setting [3]).

Consider `Fc1ccc2[nH]c(CNc3nc(N4CC5CCC(C4)N5)nc4c(Cl)cnn34)nc2c1F.O=CO` [Example 360, formic acid 8-chloro-2-(3,8-diazabicyclo[3.2.1]octan-3-yl)-N-[(4,5-difluoro-1H-benzimidazol-2-yl)methyl]pyrazolo[1,5-a][1,3,5]triazin-4-amine], for which the figures for the IC50 in assay [1] and in assay [2] (setting [3]) were 4010 nM and 1.03 nM, respectively.
